From paper PMC8556085, “Antimicrobial and Antioxidant Secondary Metabolites from Trifolium baccarinii Chiov. (Fabaceae) and Their Mechanisms of Antibacterial Action” (BioMed Research International, 2021)
Converted amounts (≈) assume the structure as drawn. Read-outs that look alike come from different tables or passages of the source. Marks after values point to notes of the source that are not given here.

Key:
[1] = DPPH free radical scavenging assay; conditions: for DPPH free radical scavenging activity (EC50): mean ± SD
Description: The free radical scavenging activity of extracts and compounds was evaluated according to the described method. The EC50 (μg/mL), which is the amount of sample necessary to inhibit by 50% the absorbance of free radical DPPH, was calculated. Vitamin C was used as a standard control. All the analyses were carried out in triplicate and repeated three times.

[2] = test system: tested bacteria and yeasts; experiment: Broth microdilution MIC/MMC, summary over all strains; assay type: cell-based; conditions: for antimicrobial activity class of pure compounds by cutoff points: against specific microorganism, cutoff points of ref 33; for MIC: read-out: MIC (range over the tested microorganisms); for antimicrobial activity: against the tested microorganisms
Description: (§1) The antimicrobial activity was performed against five bacterial and two fungal species. The selected microorganisms were the Gram-positive (Staphylococcus aureus ATCC25923, methicillin-resistant Staphylococcus aureus 03 (MRSA03), and methicillin-resistant Staphylococcus aureus 04 (MRSA04)) and Gram-negative (Pseudomonas aeruginosa ATCC27853 and Escherichia coli S2(1)) bacteria and yeast strains of Candida albicans ATCC10231 and Cryptococcus neoformans H99. These microorganisms were taken from our laboratory collection. The fungal and bacterial strains were conserved on Sabouraud Dextrose Agar (SDA, Conda, Madrid, Spain) and nutrient agar (NA, Conda) slants, respectively.
(§2) The antimicrobial activity was investigated by determining the minimum inhibitory concentrations (MICs), minimum bactericidal concentrations (MBC), and minimum fungicidal concentrations (MFCs). MICs of extracts/compounds were monitored using the broth microdilution method. Dimethyl sulfoxide (DMSO, Fisher Chemicals) was used to dissolve the test sample to produce a stock solution that was twofold serially diluted in Mueller-Hinton broth (MHB) for bacteria and Sabouraud Dextrose Broth (SDB) for fungi to obtain a concentration range of 4096 to 0.25 μg/mL. One hundred microliters of each concentration was introduced into a well (96-well microplate) containing 90 μL of SDB or MHB and 10 μL of inoculum (at 1 × 10^6 CFU/mL for bacteria and 1 × 10^5 spores/mL for yeasts) which were added to obtain a final concentration range of 2048 to 0.125 μg/mL. Plates were covered and incubated on the shaker at 37°C, 30°C, and 30°C during 24 h, 48 h, and 72 h for bacteria, Candida albicans, and Cryptococcus neoformans, respectively. The MICs were visually assessed after the incubation period and were considered the lowest sample concentration that inhibits the growth or the visual growth of the organism.
(§3) The positive controls were oxacillin (Sigma-Aldrich, Steinheim, Germany) for bacteria and nystatin (Sigma-Aldrich, Steinheim, Germany) for yeasts, and the negative control was broth with 20 μL of DMSO. The assay was carried out in triplicate.

[3] = Gallic acid equivalent antioxidant capacity (GEAC) assay; conditions: for Gallic acid equivalent antioxidant capacity (GEAC): ABTS radical, 420 nm, 240 s, mean ± SD
Description: The GEAC test was performed as described previously with some slight modifications. The laccase was purified from Sclerotinia sclerotiorum according to the described protocol. 20 μL of laccase (1 mM stock solution), 20 μL of test sample, 10 μL of ABTS (2,2′-azino-bis(3-ethylbenzothiazoline-6-sulfonic acid) (74 mM stock solution), and 950 μL of acetate buffer (pH = 5.0, 100 mM) were added in a quartz cuvette. The concentrations of the samples in the assay mixture were 800, 400, 200, 100, and 10 μg/mL for the extracts and 200, 100, 50, 25, and 12.5 μg/mL for the isolated compounds. The content of the generated ABTS^●+ radical was measured at 420 nm after 240 s reaction time and was converted to gallic acid equivalents by the use of a calibration curve (Pearson's correlation coefficient: r = 0.998) constructed with 0, 4, 10, 14, 28, 56, and 84 μM gallic acid standards rather than Trolox. Experiments were done in triplicate and repeated three times with similar results.

[4] = test system: methicillin-resistant Staphylococcus aureus 04 (MRSA04); experiment: Broth microdilution MIC/MMC; assay type: cell-based; conditions: for MMC/MIC / MBC: MRSA04; for MBC / MIC: Staphylococcus aureus; for MIC: MRSA04, 24 h, 37°C, read-out: MIC
Description: as §1, §2, §3

[5] = test system: Cryptococcus neoformans H99; experiment: Broth microdilution MIC/MMC; assay type: cell-based; conditions: for MIC: Cryptococcus neoformans H99, 72 h, 30°C
Description: as §1, §2, §3

[6] = test system: Candida albicans ATCC10231; experiment: Broth microdilution MIC/MMC; assay type: cell-based; conditions: for MIC: Candida albicans ATCC10231, 48 h, 30°C
Description: as §1, §2, §3

[7] = test system: methicillin-resistant Staphylococcus aureus 03 (MRSA03); experiment: Broth microdilution MIC/MMC; assay type: cell-based; conditions: for MMC/MIC / MBC: MRSA03; for MBC / MIC: Staphylococcus aureus; for MIC: MRSA03, 24 h, 37°C, read-out: MIC
Description: as §1, §2, §3

[8] = test system: Staphylococcus aureus ATCC25923; experiment: Broth microdilution MIC/MMC; assay type: cell-based; conditions: for MBC / MMC/MIC: Staphylococcus aureus ATCC25923; for MIC: Staphylococcus aureus ATCC25923, 24 h, 37°C, read-out: MIC
Description: as §1, §2, §3

[9] = test system: Pseudomonas aeruginosa ATCC27853; experiment: Broth microdilution MIC/MMC; assay type: cell-based; conditions: for MBC / MMC/MIC: Pseudomonas aeruginosa ATCC27853; for MIC: Pseudomonas aeruginosa ATCC27853, 24 h, 37°C, read-out: MIC
Description: as §1, §2, §3

Escherichia coli S2(1) = experiment: Broth microdilution MIC/MMC; assay type: cell-based; conditions: for MIC: 24 h, 37°C, read-out: MIC
Description: as §1, §2, §3

Row | SMILES | DPPH free radical scavenging activity (EC50) [1] | antimicrobial activity class of pure compounds by cutoff points [2] | MIC [2] [µg/mL] | Gallic acid equivalent antioxidant capacity (GEAC) [3] | MBC [4] [µg/mL] | MIC [4] [µg/mL] | MFC ([5]; Cryptococcus neoformans H99) [µg/mL] | MMC/MIC ([5]; Cryptococcus neoformans H99) | MIC ([5]; read-out: MIC) [µg/mL] | MFC ([6]; Candida albicans ATCC10231) [µg/mL] | MIC ([6]; read-out: MIC) [µg/mL] | MBC [7] [µg/mL] | MIC [7] [µg/mL] | MBC [8] [µg/mL] | MMC/MIC [8] | MIC [8] [µg/mL] | MBC [9] [µg/mL] | MIC [9] [µg/mL] | MBC (Escherichia coli S2(1)) [µg/mL] | MIC (Escherichia coli S2(1)) [µg/mL] | also measured
1 | O=C1O[C@H]([C@@H](O)CO)C(O)=C1O [Vitamin C, reference compound] | 1.81 ± 0.19^h μg/mL | – | – | – | – | – | – | – | – | – | – | – | – | – | – | – | – | – | – | – | –
2 | COc1ccc(-c2coc3cc(O)cc(O)c3c2=O)cc1 [compound 1, biochanin A] | 4.87 ± 0.43^d μg/mL | moderate | 32 to 64 (≈ 113 to 225 µM) | 101.77 ± 1.24^d μg/mL | 128 (≈ 450 µM) | 64 (≈ 225 µM) | 32 (≈ 113 µM) | 1 | 32 (≈ 113 µM) | 64 (≈ 225 µM) | 32 (≈ 113 µM) | 128 (≈ 450 µM) | 64 (≈ 225 µM) | 32 (≈ 113 µM) | 1 | 32 (≈ 113 µM) | 64 (≈ 225 µM) | 32 (≈ 113 µM) | 64 (≈ 225 µM) | 32 (≈ 113 µM) | MMC/MIC [4]: 2; MMC/MIC ([6]; Candida albicans ATCC10231): 2; MMC/MIC [7]: 2; MMC/MIC [9]: 2; MMC/MIC (Escherichia coli S2(1)): 2
3 | O=c1cc(-c2ccc(O[C@@H]3O[C@H](CO)[C@@H](O)[C@H](O)[C@H]3O)c(O)c2)oc2cc(O)cc(O)c12 [compound 4, luteolin-4′-O-β-D-glucopyranoside] | 3.71 ± 0.99^d μg/mL | moderate | 16 to 64 (≈ 35.7 to 143 µM) | 118.71 ± 0.19^g μg/mL | 128 (≈ 285 µM) | 64 (≈ 143 µM) | 16 (≈ 35.7 µM) | 1 | 16 (≈ 35.7 µM) | 16 (≈ 35.7 µM) | 16 (≈ 35.7 µM) | 128 (≈ 285 µM) | 64 (≈ 143 µM) | 64 (≈ 143 µM) | 2 | 32 (≈ 71.4 µM) | 128 (≈ 285 µM) | 64 (≈ 143 µM) | 32 (≈ 71.4 µM) | 32 (≈ 71.4 µM) | MMC/MIC [4]: 2; MMC/MIC ([6]; Candida albicans ATCC10231): 1; MMC/MIC [7]: 2; MMC/MIC [9]: 2; MMC/MIC (Escherichia coli S2(1)): 1
4 | COc1ccc(-c2coc3cc(OC4OC(CO)C(O)C(O)C4O)cc(O)c3c2=O)cc1 (centres unmarked) [compound 6, sissotrin] | 7.13 ± 0.97^e μg/mL | moderate/low | 32 to 256 (≈ 71.7 to 573 µM) | 72.96 ± 1.54^i μg/mL | > 256 | 256 (≈ 573 µM) | 256 (≈ 573 µM) | 8 | 32 (≈ 71.7 µM) | > 256 | 64 (≈ 143 µM) | > 256 | 256 (≈ 573 µM) | 128 (≈ 287 µM) | 2 | 64 (≈ 143 µM) | 256 (≈ 573 µM) | 128 (≈ 287 µM) | 128 (≈ 287 µM) | 64 (≈ 143 µM) | MMC/MIC [9]: 2; MMC/MIC (Escherichia coli S2(1)): 2
5 | CO[C@@H]1O[C@H](CO)[C@@H](O)[C@H](O)[C@H]1O [compound 7, 1-methyl-β-D-glucopyranoside] | – | not active | > 256 | – | > 256 | > 256 | > 256 | – | > 256 | > 256 | > 256 | > 256 | > 256 | > 256 | – | > 256 | > 256 | > 256 | > 256 | > 256 | antimicrobial activity [2]: not active; activity in DPPH assay [1]: inactive; activity in TEAC assay [3]: inactive
6 | COc1ccc(-c2coc3cc(O[C@@H]4O[C@H](CO)[C@@H](O)[C@H](O)[C@H]4O)ccc3c2=O)cc1 [compound 8, ononin] | 38.96 ± 1.54^g μg/mL | moderate/low | 64 to 256 (≈ 149 to 595 µM) | 57.43 ± 0.97^j μg/mL | > 256 | 256 (≈ 595 µM) | > 256 | – | 64 (≈ 149 µM) | > 256 | 128 (≈ 297 µM) | > 256 | 256 (≈ 595 µM) | 256 (≈ 595 µM) | 4 | 64 (≈ 149 µM) | 256 (≈ 595 µM) | 256 (≈ 595 µM) | 256 (≈ 595 µM) | 128 (≈ 297 µM) | MMC/MIC [9]: 1; MMC/MIC (Escherichia coli S2(1)): 2
7 | OC[C@@H](O)[C@@H](O)[C@H](O)[C@H](O)CO [compound 9, D-mannitol] | – | low/not active | ≥ 128 | – | > 256 | > 256 | > 256 | – | 256 (≈ 1410 µM) | > 256 | > 256 | > 256 | > 256 | > 256 | – | 128 (≈ 703 µM) | > 256 | 256 (≈ 1410 µM) | > 256 | 128 (≈ 703 µM) | antimicrobial activity [2]: low activity; activity in DPPH assay [1]: inactive; activity in TEAC assay [3]: inactive
8 | CC1(C)CC(O)C2(C)CCC3(C)C(=CCC4C5(C)CCC(OC6OC(C(=O)O)C(O)C(O)C6O)C(C)(CO)C5CCC43C)C2C1 [compound 10, 3-O-β-D-glucuronopyranosylsoyasapogenol B] | – | low/not active | ≥ 256 | – | > 256 | > 256 | > 256 | – | 256 (≈ 403 µM) | > 256 | > 256 | > 256 | > 256 | > 256 | – | 256 (≈ 403 µM) | > 256 | 256 (≈ 403 µM) | > 256 | 256 (≈ 403 µM) | antimicrobial activity [2]: low activity; activity in DPPH assay [1]: inactive; activity in TEAC assay [3]: inactive
9 | C[C@@H]1[C@H](O)[C@@H](C)/C=C/C=C/CC/C=C/C=C/C=C/C=C/C(O[C@H]2O[C@H](C)[C@@H](O)[C@H](N)[C@@H]2O)CC2O[C@](O)(CC(O)C(O)CCC(O)CC(O)CC(O)CC(=O)O[C@H]1C)CC(O)C2C(=O)O (some centres unmarked) [nystatin, reference compound] | – | – | – | – | – | – | – | 1 | – | – | – | – | – | – | – | – | – | – | – | – | MMC/MIC (microbicidal activities) ([2]; against all the tested microorganisms): ≤ 4; MMC ([5]; Cryptococcus neoformans H99): 2 µg/mL; MIC [5]: 2 µg/mL (≈ 2.16 µM); MMC ([6]; Candida albicans ATCC10231): 1 µg/mL; MMC/MIC ([6]; Candida albicans ATCC10231): 1; MIC [6]: 1 µg/mL (≈ 1.08 µM)
